# Earlier results in patent publication US12350251B2, “Sexual health enhancement composition” (Rev Pharmaceuticals, Inc., priority 2016, dated 2025).
# pEC50: −log10 of the molar value. Read-outs that look alike come from different tables or passages of the source.
# Experiments:
# cAMP production = settings: treated cells
# human CC = settings: in vitro, alone; read-out: EC50 of relaxation of human CC
# [1] = not given; remark: listed apart in the source
# [2] = not given; remark: listed apart in the source
smiles,measurement,setting,value
Cc1ccc(N(CC2=NCCN2)c2cccc(O)c2)cc1 [phentolamine],cAMP production,cAMP production,unaffected
C=C[C@@]1(C)CC(=O)[C@]2(O)[C@@]3(C)[C@@H](O)CCC(C)(C)[C@@H]3[C@H](O)[C@H](OC(C)=O)[C@@]2(C)O1 [forskolin],water solubility,,water soluble
CCCCC[C@H](O)/C=C/[C@H]1[C@H](O)CC(=O)[C@@H]1CCCCCCC(=O)O [prostaglandin E1],pEC50,human CC,~7.80
COc1ccc(Cc2nccc3cc(OC)c(OC)cc23)cc1OC [papaverine],cAMP production,cAMP production,unaffected
N=C(N)NCCC[C@H](N)C(=O)O [L-arginine],peripheral vasodilation in humans,"[1]; IV infusion or oral, about 6 to about 30 gm",induced peripheral vasodilation
"Cl.N=C(N)NCCC[C@H](N)C(=O)O [L-arginine hydrochloride (HCl), L-arginine hydrochloride]",Cmax,[2]; 6 gm oral,310 µM
same,Half-life,[2]; IV,1 h
same,Half-life,[2]; PO,1.5 h
same,changes in hemodynamics,[1]; 6 gm doses,No significant changes
same,urinary cGMP and nitrate excretion,[1]; about 6 gm to about 30 gm IV,significant increases
same,blood pressure and total peripheral resistance,[1]; after 30 gm IV,significantly decreased
